Legend:
Type in all cases: physicochemical
[1] = dynamic vapor sorption (DVS); conditions: 25° C.; for changes in mass (DVS): dynamic mode, 5% relative air humidity/hour; for hygroscopicity: DVS
Description: Crystalline modifications A and B of (1R,2R)-3-(3-dimethylamino-1-ethyl-2-methyl-propyl)-phenol were each characterized by dynamic vapor sorption (DVS). The analyses were recorded in dynamic mode (5% relative air humidity/hour).
The DVS cycles are reversible.

[2] = rate of dissolution in water, first determination (stirred suspension); conditions: particle size distribution not taken into account
Description: (§1) To analyse the rate of dissolution of modifications A and B in water, two different determinations were carried out.
Under these conditions, the particle size affects the result.

[3] = rate of dissolution in water, second determination (tablets); conditions: for rate of dissolution: tablets, in water
Description: as §1

[4] = mechanical stress: ball mill grinding and tablet compaction (Example 8); conditions: for modification obtained after tablet compaction: IR tablet press, pressure 10 t, 30 min; for modification obtained after grinding in ball mill: shaking frequency 30 sec^-1, RT, 2x90 min, 1x60 min
Description: The effect of mechanical stress from grinding with a ball mill (model Retsch MM200, agate vessel and agate ball with 5 mm diameter) and from pressure during the production of a tablet was analysed.
8.1) A tablet was produced with 100 mg (1) on an IR tablet press (pressure 10 t, 30 min).
8.4) 15 mg of the crystalline form A were ground in a ball mill (shaking frequency: 30 sec^−1, RT) as follows: 2×90 min, 1×60 min, 2×30 min discontinuation.

[5] = relative thermodynamic stability, suspension of mixtures of modifications A and B (Example 9); conditions: temperature range of 5-85° C., preferably 5-50° C.
Description: The suspension was shaken overnight in an Eppendorf Thermomixer at RT. The obtained solid was filtered out and characterized by FT Raman spectral analysis. […] The suspension was shaken overnight in an Eppendorf Thermomixer at RT. The resulting solid was filtered out and characterized by FT Raman spectral analysis. […] The suspension was stirred for three days at 5° C. The obtained solid was filtered out and characterized by FT Raman spectral analysis. […] The suspension was stirred overnight at 50° C. […] All solid components were dissolved. After cooling to RT, small amounts of a colourless solid were precipitated. The solvent was removed in a nitrogen flow. […]

[6] = suspension of modification B in various solvents (Example 6); conditions: 2 days; for modification obtained after suspension: stirred at RT
Description: It was possible to exclude the formation of solvates with the selected solvents.
6.1) 200 mg (1) were suspended in 500 μl TBME. The mixture was stirred at RT for a duration of 2 days and the resulting solid was filtered out.
6.2) 100 mg (1) were suspended in 500 μl heptane/TBME (1:1). The mixture was stirred at RT for a duration of 2 days and the resulting solid was filtered out.
6.3) 100 mg (1) were suspended in 500 μl H2O. The mixture was stirred at RT for a duration of 2 days and the resulting solid was filtered out.
6.4) 100 mg (1) were suspended in 500 μl IPE. The mixture was stirred at RT for a duration of 2 days and the resulting solid was filtered out.
6.5) 100 mg (1) were suspended in 500 μl H2O/EtOH. The mixture was stirred at RT for a duration of 2 days and the resulting solid was filtered out.

solubility in solvents = conditions: in saturated hydrocarbons (n-pentane, n-hexane, n-heptane) and water
Source text: Conventional organic solvents known to persons skilled in the art may be used as solvents in a solution of this type, in particular alcohols such as methanol, ethanol, 1-propanol and 2-propanol, esters such as ethyl acetate, ketones such as acetone and ethylmethyl ketone, ethers such as diethyl ether, tert-butyl methyl ether, 1,4-dioxane and tetrahydrofuran, nitriles such as acetonitrile, chlorinated hydrocarbons such as dichloromethane, aromatic hydrocarbons such as toluene, and also dimethyl formamide and dimethyl sulfoxide.

[7] = physical stability of amorphous modification (Example 7)
Description: Attempts were made to produce the amorphous modification of (1R,2R)-3-(3-dimethylamino-1-ethyl-2-methyl-propyl)-phenol by evaporation, lyophilization or melting.
7.1) 150 mg (1) were dissolved in 3 ml MeOH. The solvent was removed on a rotary evaporator. A colourless oil remained. The residue was dried in a vacuum.
7.2) 150 mg (1) were dissolved in 2 ml 1,4-dioxane. The solvent was removed by freeze-drier.
7.3) 150 mg (1) were dissolved in 2 ml 1,4-dioxane. The solvent was removed by freeze-drier (−85° C., 0.5 mbar). A colourless residue remained and crystallized spontaneously before it was possible to perform a PXRD analysis. […] The melt was frozen with dry ice. An amorphous film was obtained which crystallized within 1 hour.

[8] = crystallization of amorphous oily residues on storage (Example 1); conditions: stored at RT or at 5° C.
Description: Amorphous (1R,2R)-3-(3-dimethylamino-1-ethyl-2-methyl-propyl)-phenol was obtained by rapid evaporation of a solution of the compound on a rotary evaporator. The oily residues were stored at RT or at 5° C. All the samples crystallized within 24 hours.

Compound: CC[C@@H](c1cccc(O)c1)[C@@H](C)CN(C)C [modification B, (1R,2R)-3-(3-dimethylamino-1-ethyl-2-methyl-propyl)-phenol]
- changes in mass (DVS) [1]: 0.3%
- hygroscopicity [1]: not or at most slightly hygroscopic
- rate of dissolution, comparison of forms [2]: dissolves more rapidly
- rate of dissolution [3]: 0.003 mg/min cm^2
- modification obtained after tablet compaction ([4]; listed as (1)): Modification B
- modification obtained after grinding in ball mill [4]: Modification B
- thermodynamic stability of the form [5]: most thermodynamically stable form
- modification obtained after suspension ([6]; H2O): modification B
- modification obtained after suspension ([6]; H2O/EtOH): modification B
- modification obtained after suspension ([6]; IPE): modification B
- modification obtained after suspension ([6]; TBME): modification B
- modification obtained after suspension ([6]; heptane/TBME (1:1)): modification B
- change upon suspension in various solvents ([6]; various solvents, RT): no change

Compound: CC[C@@H](c1cccc(O)c1)[C@@H](C)CN(C)C [modification A, (1R,2R)-3-(3-dimethylamino-1-ethyl-2-methyl-propyl)-phenol]
- changes in mass (DVS) [1]: 0.8%
- hygroscopicity [1]: not or at most slightly hygroscopic
- polymorphic conversion during dissolution determination ([3]; tablets in water, analysed with FT Raman): converted into form B
- rate of dissolution [3]: 0.003 mg/min cm^2
- modification obtained after tablet compaction [4]: Modification A
- modification obtained after grinding in ball mill [4]: converted into modification B
- modification obtained after grinding in ball mill ([4]; listed as form A): Modification B

Compound: CC[C@@H](c1cccc(O)c1)[C@@H](C)CN(C)C [(1R,2R)-3-(3-dimethylamino-1-ethyl-2-methyl-propyl)-phenol]
- solubility (solubility in solvents): only poorly soluble

Compound: CC[C@@H](c1cccc(O)c1)[C@@H](C)CN(C)C [amorphous modification, (1R,2R)-3-(3-dimethylamino-1-ethyl-2-methyl-propyl)-phenol]
- crystallization of amorphous samples ([7]; amorphous samples from evaporation, lyophilization or melting): crystallized within hours
- time until amorphous film crystallized ([7]; melted at 88-91° C., melt frozen with dry ice): ≤ 1 h
- time until amorphous oily residues crystallized [8]: ≤ 24 h

Reference: patent publication US8134032B2, “Crystalline modifications of (1R,2R)-3-(3-dimethylamino-1-ethyl-2-methyl-propyl)-phenol” (priority 2007, dated 2012)
